# In article PMC6189639 (Biochemistry, 2018):
# What was measured:
# Assay in all cases: X-ray crystal structure of complex, […] A
# Type in all cases: binding
# tmMBP3 = tmMBP3 (Thermotoga maritima, UniProt G4FGN8); conditions: co-crystal, 0.4 M sodium thiocyanate; substrate site S1-S2
# tmMBP1 = tmMBP1 (Thermotoga maritima, UniProt Q9X0T1); conditions: co-crystal, 0.1 M sodium citrate; substrate site S1-S4
# tmMBP2 = tmMBP2 (Thermotoga maritima, UniProt Q9S5Y1); conditions: co-crystal, bis-tris pH 5.5; substrate site S1-S4
SMILES,"X-ray crystal structure of complex, 2.15 A; SAXS (tmMBP3)","X-ray crystal structure of complex, 1.50 A; SAXS (tmMBP1)","X-ray crystal structure of complex, 1.50 A; SAXS (tmMBP2)"
OC[C@H]1O[C@H](O[C@H]2[C@H](O)[C@@H](O)C(O)O[C@@H]2CO)[C@H](O)[C@@H](O)[C@@H]1O (stereo partly drawn) [maltose],tmMBP3-maltose complex (6DTQ),,
OC[C@H]1O[C@H](O[C@H]2[C@H](O)[C@@H](O)[C@@H](O[C@H]3[C@H](O)[C@@H](O)[C@@H](O[C@H]4[C@H](O)[C@@H](O)C(O)O[C@@H]4CO)O[C@@H]3CO)O[C@@H]2CO)[C@H](O)[C@@H](O)[C@@H]1O (stereo partly drawn) [maltotetraose],,tmMBP1-maltotetraose complex (6DTU),tmMBP2-maltotetraose complex (6DTS)
